Measured values as given in US20240252488A1 (KOREA RESEARCH INSTITUTE OF CHEMICAL TECHNOLOGY, priority 2020, published 2024).

Assays:
MLKL [1] = target: T1, MLKL (Homo sapiens, UniProt Q8NB16); assay: Measurement of binding affinity with MLKL receptor (competitive binding assay, Kd); parameters: made in house; host or cells: HEK 293 cell line (T7 phage in E. coli BL21-derived host is also described)
T1 sequence (Q8NB16 1-471): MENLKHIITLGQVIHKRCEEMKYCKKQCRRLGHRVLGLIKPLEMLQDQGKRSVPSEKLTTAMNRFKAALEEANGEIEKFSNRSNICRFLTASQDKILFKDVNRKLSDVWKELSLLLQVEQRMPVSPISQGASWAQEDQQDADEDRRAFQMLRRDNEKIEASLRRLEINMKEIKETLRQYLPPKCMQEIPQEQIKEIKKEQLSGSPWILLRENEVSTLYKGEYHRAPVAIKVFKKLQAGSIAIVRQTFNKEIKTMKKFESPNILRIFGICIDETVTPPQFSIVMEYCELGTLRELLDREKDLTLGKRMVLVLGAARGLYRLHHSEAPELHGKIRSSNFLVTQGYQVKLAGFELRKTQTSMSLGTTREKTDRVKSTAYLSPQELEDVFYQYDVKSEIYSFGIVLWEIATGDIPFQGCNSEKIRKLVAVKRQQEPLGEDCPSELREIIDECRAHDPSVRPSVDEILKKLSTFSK
Outline: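 Kd comes from a bead-based competition format: compound-dependent loss of DNA-tagged, HEK 293-expressed MLKL capture, measured as eluate kinase by qPCR. Final DMSO is 0.9%.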

FADD−/− Jurkat cells = assay: Necroptosis inhibition assay, TNF-α-induced necroptosis (CellTiter-Glo 2.0); format: cell-based, human; conditions: TNF-α 15 ng/mL; for Necroptosis inhibition assay (Rescue %) 1 μM: compound 1 μM; for Necroptosis inhibition assay (Rescue %) 10 μM: compound 10 μM
Outline: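 Luminescent ATP measurement gave viability, from which cytotoxicity and necroptosis inhibition rate were derived. Before that, cells (5.0×10^5 cells/mL) saw compound at 0.1, 1 or 10 μM final for 30 minutes at room temperature, then TNF-α (15 ng/mL final) for 20 to 24 hours at 37° C.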

MLKL [2] = target: T1, MLKL; assay: MLKL degradation assay in HepG2 cell line (western blot); format: cell-based; parameters: endogenous in cells; host or cells: HepG2 or HaCaT; conditions: cell line not given; for Degradation assay (Degradation %) 1 μM: compound 1 μM; for Degradation assay (Degradation %) 10 μM: compound 10 μM
Outline: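 Cells seeded, next day medium swapped for compound-containing medium (final 1 or 10 μM) and incubated 20-24 h at 37 °C. Lysates in RIPA with protease/phosphatase inhibitors were protein-matched by BCA, run on SDS-PAGE and immunoblotted for MLKL.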

Kd (MLKL [1]) [nM] | Degradation assay (Degradation %) 1 μM (MLKL [2]) [%] | Degradation assay (Degradation %) 10 μM (MLKL [2]) [%] | SMILES | Necroptosis inhibition assay (Rescue %) 1 μM (FADD−/− Jurkat cells) [%] | Necroptosis inhibition assay (Rescue %) 10 μM (FADD−/− Jurkat cells) [%] | Necroptosis inhibition assay (Rescue %) 1 μM (FADD−/− Jurkat cells; FADD−/− Jurkat cells) [%] | Necroptosis inhibition assay (Rescue %) 10 μM (FADD−/− Jurkat cells; FADD−/− Jurkat cells) [%]
1.2 | 85.62 | 81.91 | Nc1ncc(-c2cnn(C3CCN(C[C@H]4CC[C@H](CNC(=O)COc5ccc6c(c5)C(=O)N(C5CCC(=O)NC5=O)C6=O)CC4)CC3)c2)nc1C(=O)O[C@@H](C(=O)Nc1ccc(F)cc1)c1ccccc1 (stereo partly drawn) [TDH-346, (R)-2-((4-fluorophenyl)amino)-2-oxo-1-phenylethyl 3-amino-6-(1-(1-(((1r,4r)-4-((2-((2-(2,6-dioxopiperidin-3-yl)-1,3-dioxoisoindolin-5-yl)oxy)acetamido)methyl)cyclohexyl)methyl)piperidin-4-yl)-1H-pyrazol-4-yl)pyrazine-2-carboxylate] | 57.41 | 24.57 |  | 
4.3 | 77.25 | 89.93 | Cc1cccc(NC(=O)[C@H](OC(=O)c2nc(-c3cnn(C4CCN(CCCN5CCN(C(=O)COc6ccc7c(c6)C(=O)N(C6CCC(=O)NC6=O)C7=O)CC5)CC4)c3)cnc2N)c2ccccc2)c1 (stereo partly drawn) [TDH-487, (R)-2-oxo-1-phenyl-2-(m-tolylamino)ethyl 3-amino-6-(1-(1-(3-(4-(2-((2-(2,6-dioxopiperidin-3-yl)-1,3-dioxoisoindolin-5-yl)oxy)acetyl)piperazin-1-yl)propyl)piperidin-4-yl)-1H-pyrazol-4-yl)pyrazine-2-carboxylate] |  |  | 59.49 | 58.14
0.38 | 48.26 | 7.49 | COc1ccc(C(=O)N2CCC(OCCN3CCC(n4cc(-c5cnc(N)c(C(=O)O[C@@H](C(=O)Nc6ccc(F)cc6)c6ccccc6)n5)cn4)CC3)CC2)cc1N1CCC(=O)NC1=O [TDH-448, (R)-2-((4-fluorophenyl)amino)-2-oxo-1-phenylethyl 3-amino-6-(1-(1-(2-((1-(3-(2,4-dioxotetrahydropyrimidin-1(2H)-yl)-4-methoxybenzoyl)piperidin-4-yl)oxy)ethyl)piperidin-4-yl)-1H-pyrazol-4-yl)pyrazine-2-carboxylate] |  |  | 27.91 | 20.07
5.6 | 4.37 | 43.64 | Nc1ncc(-c2cnn(C3CCN(CCOCCNC(=O)C4CN(c5ccc6c(c5)C(=O)N(C5CCC(=O)NC5=O)C6=O)C4)CC3)c2)nc1C(=O)O[C@@H](C(=O)Nc1ccc(F)cc1)c1ccccc1 (stereo partly drawn) [TDH-127, (R)-2-((4-fluorophenyl)amino)-2-oxo-1-phenylethyl 3-amino-6-(1-(1-(2-(2-(1-(2-(2,6-dioxopiperidin-3-yl)-1,3-dioxoisoindolin-5-yl)azetidine-3-carboxamido)ethoxy)ethyl)piperidin-4-yl)-1H-pyrazol-4-yl)pyrazine-2-carboxylate] | 34.64 | 49.65 |  | 
3.3 | 66.35 | 46.78 | Nc1ncc(-c2cnn(C3CCN(CCCN4CCN(c5ccc6c(c5)C(=O)N(C5CCC(=O)NC5=O)C6=O)CC4)CC3)c2)nc1C(=O)OC(C(=O)Nc1ccc(F)cc1)c1ccccc1 (stereo not shown) [TDH-246, 2-((4-fluorophenyl)amino)-2-oxo-1-phenylethyl 3-amino-6-(1-(1-(3-(4-(2-(2,6-dioxopiperidin-3-yl)-1,3-dioxoisoindolin-5-yl)piperazin-1-yl)propyl)piperidin-4-yl)-1H-pyrazol-4-yl)pyrazine-2-carboxylate] | 60.97 | 26.97 |  | 
14 | 11 | 68.52 | Nc1ncc(-c2cnn(C3CCN(CCOCCNC(=O)C4CCN(c5cccc6c5C(=O)N(C5CCC(=O)NC5=O)C6=O)CC4)CC3)c2)nc1C(=O)O[C@@H](C(=O)Nc1ccc(F)cc1)c1ccccc1 (stereo partly drawn) [TDH-128, (R)-2-((4-fluorophenyl)amino)-2-oxo-1-phenylethyl 3-amino-6-(1-(1-(2-(2-(1-(2-(2,6-dioxopiperidin-3-yl)-1,3-dioxoisoindolin-4-yl)piperidine-4-carboxamido)ethoxy)ethyl)piperidin-4-yl)-1H-pyrazol-4-yl)pyrazine-2-carboxylate] | 26.22 | 56.56 |  | 
4.2 | 70 | 53.96 | Nc1ncc(-c2cnn(C3CCN(CC4CCN(C(=O)CC5CCN(c6cccc7c6C(=O)N(C6CCC(=O)NC6=O)C7=O)CC5)CC4)CC3)c2)nc1C(=O)O[C@@H](C(=O)Nc1ccc(F)cc1)c1ccccc1 (stereo partly drawn) [TDH-204, (R)-2-((4-fluorophenyl)amino)-2-oxo-1-phenylethyl 3-amino-6-(1-(1-((1-(2-(1-(2-(2,6-dioxopiperidin-3-yl)-1,3-dioxoisoindolin-4-yl)piperidin-4-yl)acetyl)piperidin-4-yl)methyl)piperidin-4-yl)-1H-pyrazol-4-yl)pyrazine-2-carboxylate] | 61.24 | 38.71 |  | 
6.7 | 70.94 | 48.11 | Nc1ncc(-c2cnn(C3CCN(CCC4CCN(C(=O)C5CN(c6ccc7nnn(C8CCC(=O)NC8=O)c(=O)c7c6)C5)CC4)CC3)c2)nc1C(=O)OC(C(=O)Nc1ccc(F)cc1)c1ccccc1 (stereo not shown) [TDH-291, 2-((4-fluorophenyl)amino)-2-oxo-1-phenylethyl 3-amino-6-(1-(1-(2-(1-(1-(3-(2,6-dioxopiperidin-3-yl)-4-oxo-3,4-dihydrobenzo[d][1,2,3]triazin-6-yl)azetidine-3-carbonyl)piperidin-4-yl)ethyl)piperidin-4-yl)-1H-pyrazol-4-yl)pyrazine-2-carboxylate] | 87.96 | 64.92 |  | 
0.41 | 90.60 | 91.41 | COc1ccc(C(=O)N2CCC(CN3CCC4(CC3)CC(N3CCC(n5cc(-c6cnc(N)c(C(=O)O[C@@H](C(=O)Nc7ccc(F)cc7)c7ccccc7)n6)cn5)CC3)C4)CC2)cc1N1CCC(=O)NC1=O [TDH-499, (R)-2-((4-fluorophenyl)amino)-2-oxo-1-phenylethyl 3-amino-6-(1-(1-(7-((1-(3-(2,4-dioxotetrahydropyrimidin-1(2H)-yl)-4-methoxybenzoyl)piperidin-4-yl)methyl)-7-azaspiro[3.5]nonan-2-yl)piperidin-4-yl)-1H-pyrazol-4-yl)pyrazine-2-carboxylate] |  |  | 45.83 | 11.8
3.2 | 30.1 | 69.02 | Nc1ncc(-c2cnn(C3CCN(CCOCCNC(=O)CNc4ccc5c(c4)C(=O)N(C4CCC(=O)NC4=O)C5=O)CC3)c2)nc1C(=O)O[C@@H](C(=O)Nc1ccc(F)cc1)c1ccccc1 (stereo partly drawn) [TDH-125, (R)-2-((4-fluorophenyl)amino)-2-oxo-1-phenylethyl 3-amino-6-(1-(1-(2-(2-(2-((2-(2,6-dioxopiperidin-3-yl)-1,3-dioxoisoindolin-5-yl)amino)acetamido)ethoxy)ethyl)piperidin-4-yl)-1H-pyrazol-4-yl)pyrazine-2-carboxylate] | 21.27 | 54.55 |  | 
2.5 | 86.34 | 84.54 | Nc1ncc(-c2cnn(C3CCN(CCCC4CCN(C(=O)CNc5ccc6c(c5)C(=O)N(C5CCC(=O)NC5=O)C6=O)CC4)CC3)c2)nc1C(=O)O[C@@H](C(=O)Nc1ccc(F)cc1)c1ccccc1 (stereo partly drawn) [TDH-483, (R)-2-((4-fluorophenyl)amino)-2-oxo-1-phenylethyl 3-amino-6-(1-(1-(3-(1-((2-(2,6-dioxopiperidin-3-yl)-1,3-dioxoisoindolin-5-yl)glycyl)piperidin-4-yl)propyl)piperidin-4-yl)-1H-pyrazol-4-yl)pyrazine-2-carboxylate] |  |  | 62.95 | 37.9
